Measurements reported in patent publication US20070161542A1, “Ptb1b photoprobes” (priority 2003, published 2007).

Columns and labels:
purified Flag-PTP1B = target: T1, purified Flag-PTP1B (Homo sapiens, UniProt P18031); experiment: Photolabeling of purified enzyme using radioactive photoprobes; format: binding
T1 construct: Flag-PTP1B (residues 1-320 as a flag fusion); made in house
T1 sequence (P18031 1-320): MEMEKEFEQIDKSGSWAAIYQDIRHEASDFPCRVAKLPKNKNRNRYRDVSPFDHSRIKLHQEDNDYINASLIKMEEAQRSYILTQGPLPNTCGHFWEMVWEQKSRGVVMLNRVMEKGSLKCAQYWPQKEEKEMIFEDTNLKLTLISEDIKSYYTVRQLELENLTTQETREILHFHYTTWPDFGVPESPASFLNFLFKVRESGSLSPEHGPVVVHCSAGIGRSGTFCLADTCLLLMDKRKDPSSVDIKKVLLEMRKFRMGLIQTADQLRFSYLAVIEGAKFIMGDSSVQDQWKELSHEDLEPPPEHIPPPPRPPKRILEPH
Method: (§1) All photolabeling experiments with purified enzymes or SF9 cell lysate overexpressing PTP1B were conducted in 96-well polystyrene plates in 50 μl BisTris buffer (50 mM BisTris pH 6.3, 2 mM EDTA, 1 mM DMH) containing enzyme (in BisTris buffer with 20% glycerol, 0.01% Triton X-100) or lysate and Example 9 (in water) or Example 1 (in water) at various concentrations and shaken for 1 min at room temperature. For competition studies, BzN-EJJ-AMIDE at various concentrations was added prior to the addition of the probes. The samples were then placed on ice for 5 min and irradiated with the 40 watt lamp at the standard 10 cm distance for 15 minutes. […] Autoradiography of the dried, coommassie-stained gel was done using Phosphorimaging (Molecular Devices) or by x-ray film (BioMax MS with intensifier screen, Kodak) and quantified by densitometry.
To study the labeling of PTP1B under physiological concentrations that exist in cells and tissues, ^125I -radiolabeled versions of Examples 9 and 1 were synthesized. […] The labeled enzyme was detected by phosphorimage (Molecular Devices) or x-ray film (BioMax MS with intensifier screen) from a SDS-PAGE gel after electrophoresis. From a titration of the purified PTP1B and probe, a detection limit for the two probes of Examples 9 and 1 were determined to be about 5 and 0.2 nM respectively, as detected by phosphorimaging. […]

[1] = target: T2, full-length PTP1B in SF9 lysate (Homo sapiens, UniProt P18031); experiment: Photolabeling of SF9 cell lysate overexpressing PTP1B; format: binding; conditions: PTP1B 1% wt/wt protein
T2 construct: Infected SF9 cell lysate expressing full-length PTP1B (as a flag fusion); made in house; host or cells: SF9 insect cells (infected), used as crude lysate
T2 sequence (P18031 1-435): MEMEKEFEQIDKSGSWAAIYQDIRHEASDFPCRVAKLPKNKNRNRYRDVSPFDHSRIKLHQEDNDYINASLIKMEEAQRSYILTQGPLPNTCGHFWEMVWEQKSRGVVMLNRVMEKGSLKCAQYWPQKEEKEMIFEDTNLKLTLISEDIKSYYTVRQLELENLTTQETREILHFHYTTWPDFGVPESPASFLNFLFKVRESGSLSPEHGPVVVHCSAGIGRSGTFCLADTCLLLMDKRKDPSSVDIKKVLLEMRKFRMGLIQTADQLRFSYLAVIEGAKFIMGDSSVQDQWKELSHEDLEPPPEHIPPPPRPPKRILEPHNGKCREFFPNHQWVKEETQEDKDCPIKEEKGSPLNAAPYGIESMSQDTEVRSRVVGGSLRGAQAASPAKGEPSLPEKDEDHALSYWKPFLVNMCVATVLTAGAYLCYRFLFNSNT
From the text: Protein tyrosine phosphatases used in this study were expressed and purified using published procedures, as follows: (a) Flag-PTP1B (residues 1-320 as a flag fusion), Huyer et al. (29). (b) Flag-TCPTP (residues 1-281 as a flag fusion), Asante-Appiah et al. (30). (c) Flag-CD45 (residues 556-1268 as a flag fusion), Wang et al. (31). (d) Mutant C215S-PTP1B (residues 1-320 as a gst fusion), Skorey et al. (28). (e) Infected SF9 cell lysate expressing full-length PTP1B (as a flag fusion), Cromlish et al. (25). For studies using H2O2-inactivated Flag-PTP1B, 100 μl of 2 μg/ml PTP1B was incubated with 100 μl of 1 mM or 20 mM H2O2 for 15 min to obtain 50% or 100% inactivated enzyme respectively as determined by the enzyme kinetic assay.
as §1, with “temperature.” for “temperature. For competition studies, BzN-EJJ-AMIDE at various concentrations was added prior to the addition of the probes. The samples were then placed on ice for 5 min and irradiated with the 40 watt lamp at the standard 10 cm distance for 15 minutes.”, “densitometry. […]” for “densitometry.”

Structure (SMILES): NC(=O)[C@H](Cc1ccc(C(F)(F)P(=O)(O)O)cc1)NC(=O)[C@H](Cc1ccc(C(F)(F)P(=O)(O)O)cc1)NC(=O)c1cc(I)cc(C2(C(F)(F)F)N=N2)c1 [Example 9, 4-(Difluoro(phosphono)methyl)-N-(3-iodo-5-(3-(trifluoromethyl)-3H-diaziren-3-yl)benzoyl)-L-phenylalanyl-4-(difluoro(phosphono)methyl)-L-phenylalaninamide]
- efficiency of labeling (purified Flag-PTP1B; 7 nM probe, purified Flag-PTP1B, vs probe alone after gel electrophoresis): 9%
- detection limit of labeled PTP1B (purified Flag-PTP1B; 125I-radiolabeled probe, purified PTP1B, phosphorimaging): about 5 nM
- labeling of SF9 overexpressed PTP1B [1]: labeled SF9 overexpressed PTP1B
